The values that follow are results of earlier work, collected in patent publication US20080175827A1, “PHOSPHOLIPASE C ZETA MEDIATED OOCYTE ACTIVATION, COMPOSITIONS FOR USE THEREIN, AND ASSAYS FOR DETECTING AND IDENTIFYING AGENTS FOR TREATING MALE INFERTILITY” (Michigan State University, priority 2006, published 2008).

Data set [1] relates to bovine eggs. The settings on record: bovine oocytes; Malcuit and Fissore 2007.
The test system of data set [2] is IP3R. The settings on record: mice; Jellerette et al. 2000.

As to `[Cl-].[Cl-].[Sr+2]` [strontium chloride], the “[Ca2+]i oscillations” value in data set [1] is “does not induces [Ca^2+]i oscillations”. For the same compound, the IP3R downregulation entry in data set [2] is recorded as “does not downregulate IP3R”.
